Laboratory results published in PMC8319579, “Aspergillomarasmine A inhibits metallo-β-lactamases by selectively sequestering Zn^2+” (The Journal of Biological Chemistry, 2021).

Experiments:
New Delhi MBL-1 (NDM-1) [1] = molecular target: T1, New Delhi MBL-1 (NDM-1) (Klebsiella pneumoniae, UniProt C7C422); experiment: time-dependent covalent fluorescent labelling by SDS-PAGE; blocked by ZnSO4; assay type: binding
T1 construct: gene blaNDM-1; His6-SUMO tag removed

New Delhi MBL-1 (NDM-1) [2] = molecular target: T1, New Delhi MBL-1 (NDM-1); experiment: steady-state hydrolysis by purified NDM-1, absorbance at […] nm; assay type: biochemical

T1 sequence (C7C422 29-270 limits assumed): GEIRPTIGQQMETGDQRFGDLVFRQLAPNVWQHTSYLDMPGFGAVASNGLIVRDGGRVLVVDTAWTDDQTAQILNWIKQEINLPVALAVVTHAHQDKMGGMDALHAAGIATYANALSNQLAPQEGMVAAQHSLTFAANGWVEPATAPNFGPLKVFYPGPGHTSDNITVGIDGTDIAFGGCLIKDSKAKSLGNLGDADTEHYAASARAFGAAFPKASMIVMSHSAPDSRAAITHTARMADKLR

Row | SMILES | time-dependent covalent fluorescent labelling by SDS-PAGE; blocked by ZnSO4 (New Delhi MBL-1 (NDM-1) [1]) | steady-state hydrolysis by purified NDM-1, absorbance at 485 nm (New Delhi MBL-1 (NDM-1) [2])
1 | CN(C)c1cccc2c(S(=O)(=O)NCCN3C(=O)C=CC3=O)cccc12 [DM, N-[2-(dansylamino)ethyl]maleimide] | NDM-1 showed time-dependent fluorescent labeling by DM in response to AMA (Fig. 4B). | –
2 | O=C(Cc1cccs1)N[C@@H]1C(=O)N2C(C(=O)O)=C(/C=C/c3ccc([N+](=O)[O-])cc3[N+](=O)[O-])CS[C@H]12 [nitrocefin] | – | we determined the steady-state kinetics of NDM-1–catalyzed hydrolysis of nitrocefin over fixed time intervals
